Reference: publication PMC5387711 (Cell Discovery, 2017)

Molecular target: T1, CARF (hCARF; collaborator of ARF) (Homo sapiens, UniProt Q9NXV6)
T1 construct: gene CDKN2AIP; full length; site Cys-516 in C-terminal fragment C1
T1 sequence (Q9NXV6 2-580): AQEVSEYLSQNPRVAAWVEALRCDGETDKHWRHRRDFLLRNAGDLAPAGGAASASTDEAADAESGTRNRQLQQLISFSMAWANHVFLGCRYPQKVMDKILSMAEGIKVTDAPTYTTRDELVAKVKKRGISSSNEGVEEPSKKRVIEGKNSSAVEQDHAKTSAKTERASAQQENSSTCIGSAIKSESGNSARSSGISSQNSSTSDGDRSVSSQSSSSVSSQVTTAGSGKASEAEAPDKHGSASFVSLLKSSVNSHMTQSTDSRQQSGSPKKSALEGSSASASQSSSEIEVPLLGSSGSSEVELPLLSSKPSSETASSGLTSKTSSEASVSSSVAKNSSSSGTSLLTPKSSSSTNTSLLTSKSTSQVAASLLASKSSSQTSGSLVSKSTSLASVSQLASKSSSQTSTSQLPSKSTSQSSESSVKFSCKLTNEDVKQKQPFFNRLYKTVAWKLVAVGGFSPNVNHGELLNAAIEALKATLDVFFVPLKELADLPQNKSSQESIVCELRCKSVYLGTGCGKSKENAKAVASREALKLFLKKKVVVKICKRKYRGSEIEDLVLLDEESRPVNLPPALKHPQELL
Assay: competition with S-614 for bead-bound His6-hCARF
Format: binding
Conditions: 15 uM NC043 against 7.5 uM S-614, 1 h, 4 C; covalent (Cys-516)

With `C=C1C(=O)[C@]23CC[C@H]1C[C@H]2[C@@]12CCC[C@@](C)(COC1=O)[C@H]2C[C@H]3O` [NC043] the “competition with S-614 for bead-bound His6-hCARF” value was “S-614 directly binds to CARF, which could be competed off by NC043”.
